Test results: patent publication US20090068290A1, “BIFEPRUNOX DOSES FOR TREATING SCHIZOPHRENIA” (priority 2006, published 2009)

Key:
[1] = tested on: adult subjects with schizophrenia; experiment: BPRS psychosis cluster score, Clinical Study One; assay type: in vivo, human; settings: for Change from Baseline in BPRS Psychosis Cluster Score, Mean (S.D.) / Change from Baseline in BPRS Psychosis Cluster Score, Median: Bifeprunox 20 mg, LOCF, ITT population
Method: There were five treatment groups in this study. […] Study medication was administered once daily. After Baseline measurements were performed, the titration phase was begun. Bifeprunox treated subjects were titrated up to 5 mg, 10 mg or 20 mg according to a standardized titration schedule (Day 1: 0.125 mg, Day 2: 0.25 mg, Day 3: 0.5 mg, Day 4: 1.0 mg, Day 5: 2.0 mg, Day 6: 5.0 mg, Day 7: 10.0 mg, Day 8: 20 mg). When the assigned dose was reached, subjects were maintained at that dose for the remainder of the six-week treatment period.

[2] = tested on: adult subjects with schizophrenia; experiment: SAS, BAS and AIMS movement scales, Clinical Study Two; assay type: in vivo, human
Method: Pharmacokinetic (PK) data of bifeprunox in schizophrenic subjects were also assessed and are presented in a separate report (combined with data from study S1543003).
The SAS is used to measure Parkinsonian-type symptoms in patients exposed to antipsychotics. The scale consists of 10 items, each rated on a 5-point scale ranging from 0 (complete absence of the condition) to 4 (presence of the condition in extreme form). The SAS total score is defined as the sum of all item scores, and the range is 0 to 40. A SAS total score of up to 3 is considered normal.
The BAS is used to rate observable, restless movements of drug-induced akathisia as well as the subjective awareness of restlessness and any distress associated with the akathisia. The scale consists of 3 items that is rated from 0 (no evidence of akathisia) to 3 (severe akathisia). The BAS total score is defined as the sum of the these three BAS item scores and ranges from is 0 to 9. In addition, a global clinical assessment of akathisia is rated from 0 (no evidence of akathisia) to 5 (severe akathisia).
The AIMS, designed to record the occurrence of dyskinetic movements, consists of 12 items. Items 1 to 7 measure specific involuntary movements on a scale from 0 (none) to 4 (severe). Items 8 to 10 measure global assessment of abnormal movement on a scale from 0 (no awareness) to 4 (aware, severe distress). Items 11 and 12 are questions regarding the dental condition of the patient, with yes/no answers. The total score is calculated by summing AIMS items 1 through 10 and ranges from 0 to 40; the non-global total score is calculated by summing items 1 through 7.

[3] = tested on: adult subjects with schizophrenia; experiment: Adverse events (TEAE, SAE, special interest, discontinuation, EPS-related TEAE), Clinical Study Three; settings: for safety and tolerability: bifeprunox 20 mg and 30 mg, 6 weeks
Method: There were four treatment arms in this study, approximately 144 subjects per arm. […] After completing the Single-Blind Placebo Lead-in Period of at least three days, bifeprunox-treated subjects were titrated from 0.25 mg up to 20 mg/day or 30 mg/day according to a standardized titration scheme over a seven- or eight-day period, respectively. When the assigned dose was reached, subjects were maintained at that dose for the remainder of the six week treatment period. […] Subjects were hospitalized (if not already inpatients) after eligibility for study entry was verified, starting from the Screening Visit until at least 10 days after Baseline. Subjects could be hospitalized longer than 10 days if considered medically necessary by the Investigator. Rating scale assessments for efficacy and abnormal movement disorders were done weekly except for Week 5. Safety assessments were performed at Screening, during treatment and at the end of the study. Subject satisfaction with study medication was assessed at Week 6. Samples of whole blood were obtained at Weeks 2, 4, and 6 for determination of bifeprunox in plasma.
EPS were assessed using treatment-emergent adverse events such as akathisia, dyskinesia, parkinsoniam, etc. and/or formal rating scales such as SAS, BAS, and/or AIMS.

O=c1[nH]c2cccc(N3CCN(Cc4cccc(-c5ccccc5)c4)CC3)c2o1 [Bifeprunox, 7-[4-([1,1′-biphenyl]-3-ylmethyl)-1-piperazinyl]-2(3H)-benzoxazolone]
Change from Baseline in BPRS Psychosis Cluster Score, Mean (S.D.) ([1]; Week 1): −1.5 (2.6) | Change from Baseline in BPRS Psychosis Cluster Score, Median ([1]; Week 1): −1 | Change from Baseline in BPRS Psychosis Cluster Score, Median ([1]; Week 2): −2 | Change from Baseline in BPRS Psychosis Cluster Score, Mean (S.D.) ([1]; Week 3): −2.7 (3.5) | Change from Baseline in BPRS Psychosis Cluster Score, Median ([1]; Week 3): −3 | Change from Baseline in BPRS Psychosis Cluster Score, Mean (S.D.) ([1]; Week 4): −2.8 (3.7) | Change from Baseline in BPRS Psychosis Cluster Score, Median ([1]; Week 4): −3 | BPRS psychosis cluster score, treatment effect (bifeprunox—placebo) ([1]; bifeprunox 20 mg, Endpoint LOCF): −1.1 | SAS shifts from normal at Baseline to abnormal at Endpoint ([2]; Bifeprunox 30 mg): < 1% | SAS shifts from normal at Baseline to abnormal at Endpoint ([2]; Bifeprunox 40 mg): 4% | subjects with abnormal SAS scores at Endpoint ([2]; Bifeprunox 40 mg): 7% | AKATHISIA, % ([3]; BX 20 mg): 3% | CONVULSION, % ([3]; BX 20 mg): 1% | DIZZINESS, % ([3]; BX 20 mg): 8% | DYSKINESIA, % ([3]; BX 20 mg): 1% | EXTRAPYRAMIDAL DISORDER, % ([3]; BX 20 mg): 3% | HEADACHE, % ([3]; BX 20 mg): 19% | LOSS OF CONSCIOUSNESS, % ([3]; BX 20 mg): 1 (<1%) | MYALGIA, % ([3]; BX 20 mg): 1 (<1%) | NECK PAIN, % ([3]; BX 20 mg): 1% | NERVOUS SYSTEM DISORDERS, % ([3]; BX 20 mg): 38% | PAIN IN EXTREMITY, % ([3]; BX 20 mg): 1 (<1%) | SEDATION, % ([3]; BX 20 mg): 5% | SINUS HEADACHE, % ([3]; BX 20 mg): 1 (<1%) | SOMNOLENCE, % ([3]; BX 20 mg): 3% | TARDIVE DYSKINESIA, % ([3]; BX 20 mg): 1 (<1%) | TREMOR, % ([3]; BX 20 mg): 1% | AKATHISIA, % ([3]; BX 40 mg): 3% | CYST, % ([3]; BX 40 mg): 1 (<1%) | DIZZINESS, % ([3]; BX 40 mg): 10% | DYSKINESIA, % ([3]; BX 40 mg): 1% | EXTRAPYRAMIDAL DISORDER, % ([3]; BX 40 mg): 1 (<1%) | HEADACHE, % ([3]; BX 40 mg): 19% | MUSCULOSKELETAL STIFFNESS, % ([3]; BX 40 mg): 1 (<1%) | MYALGIA, % ([3]; BX 40 mg): 1% | NEOPLASMS BENIGN, MALIGNANT AND UNSPECIFIED (INCL CYSTS AND POLYPS), % ([3]; BX 40 mg): 1 (<1%) | NERVOUS SYSTEM DISORDERS, % ([3]; BX 40 mg): 37% | NEUROLOGICAL SYMPTOM, % ([3]; BX 40 mg): 1 (<1%) | PAIN IN JAW, % ([3]; BX 40 mg): 1 (<1%) | PARAESTHESIA, % ([3]; BX 40 mg): < 1% | SEDATION, % ([3]; BX 40 mg): 7% | SOMNOLENCE, % ([3]; BX 40 mg): 3% | SYNCOPE VASOVAGAL, % ([3]; BX 40 mg): 1% | TREMOR, % ([3]; BX 40 mg): 3% | incidence of dizziness (TEAE of special interest) ([3]; Bifeprunox 30 mg): 10% | orthostatic hypotension (special interest TEAE) ([3]; Bifeprunox 30 mg): three subjects | subjects with at least one AE that led to study termination ([3]; Bifeprunox 30 mg): 7% | subjects with at least one SAE ([3]; Bifeprunox 30 mg): 8% | subjects with at least one TEAE ([3]; Bifeprunox 30 mg): 77% | subjects with at least one special interest TEAE ([3]; Bifeprunox 30 mg): 13% | syncope vasovagal (special interest TEAE) ([3]; Bifeprunox 30 mg): two subjects | incidence of dizziness (TEAE of special interest) ([3]; bifeprunox 20 mg): 8% | subjects with at least one AE that led to study termination ([3]; bifeprunox 20 mg): 8% | subjects with at least one SAE ([3]; bifeprunox 20 mg): 10% | subjects with at least one TEAE ([3]; bifeprunox 20 mg): 82% | subjects with at least one special interest TEAE ([3]; bifeprunox 20 mg): 11% | safety and tolerability [3]: well tolerated at both dose levels | safety and tolerability ([3]; listed as bifeprunox): safe and well tolerated | subjects who discontinued study medication due to an AE ([3]; bifeprunox groups (20, 30 mg), each): 8%
